Assay results reported in US20200246316A1, “METHODS OF TREATING POST-SURGICAL PAIN WITH A THIAZOLINE ANTI-HYPERALGESIC AGENT” (CERSCI THERAPEUTICS, INC., priority 2019, published 2020).
“Also recorded” adds a separate entry of the source. Counter-ions that a name gives are not always drawn.

Key:
[1] = Dose formulation stability (HPLC/UV); type: physicochemical
Description: Dose formulation analysis for all good laboratory practice (GLP) general toxicology studies was performed using a validated high-performance liquid chromatography (HPLC)/ultraviolet (UV) analytical method (2750-001-001 Dose Formulation Method 1). The vehicle used in the in vivo toxicology studies was 0.5% HPMC). The analytical method utilized HPLC with monitoring at 227 nm with an isocratic mobile phase of methanol with the column temperature set to 25° C. Linearity over a range of 1.0 to 200 mg/mL was observed. Dose formulations over this range were stable at room temperature for up to 13 days and were stable when stored frozen at −20° C. for up to 85 days.
In addition, formulation analysis for in vitro genetic toxicology studies was performed using a validated HPLC/UV analytical method (2750-001-001 Dose Formulation Method No. 2) with linearity over a range of 0.001 to 50 mg/mL. Dose formulations for in vitro assays were stable at room temperature for up to 1 day and when stored frozen at −20° C. for up to 45 days.

[2] = test system: rat hind paw incision model; experiment: Brennan incisional pain model, prophylactic paradigm; type: in vivo
From the text: (§1) Two incisional pain models were used to assess Compound 1 effects on hyperalgesia. The first model is referred to as the Brennan model in which, under anesthesia, a 1 cm longitudinal incision to the skin and underlying fascia of a rat hindpaw is made. The second is a variation but is a more invasive procedure in which the skin and muscle are spread apart using forceps which creates a longer-lasting hypersensitivity.
Using the Brennan protocol and a prophylactic paradigm, Compound 1 (3 doses given PO) or vehicle was administered 15 min prior to incision. At the 24-, 48-, and 72-h time points post-incision, mechanical thresholds were obtained (manual von Frey filament, using up/down method).
In a subsequent experiment, the same paradigm was used with Compound 1 administered at a dose of 30 mg/kg PO along with positive control group consisting of celecoxib (30 mg/kg PO), morphine (10 mg/kg SC), and vehicle.

[3] = test system: mouse model of severe incision; experiment: Mouse model of severe incision; type: in vivo; settings: 10 mg/kg IP daily for 15 days; Days 1, 3, 6, 8, 10, 13, 15 and 21 after incision; FIG. 13; mono-hydrochloride
From the text: as §1
In a mouse model of severe incision (tissue and muscle spread with forceps), animals were at baseline for mechanical thresholds prior to incision and then given a daily dose of Compound 1 (10 mg/kg IP) or vehicle for 15 days.

uninjured animals = experiment: Normal sensation in uninjured animals; type: in vivo
From the text: In various embodiments, Compound 1 is efficacious in in vivo animal models of acute post-incisional hyperalgesia, both prophylactically and palliatively. […] In various embodiments, less than about 1%, 0.8%, 0.6%, 0.4%, 0.2%, 0.1%, 0.08%, 0.06%, 0.04%, 0.02%, or 0.01% of Compound 1 in blood plasma penetrates the BBB.

[4] = Effect of food on oral bioavailability in rats; type: in vivo, rat
Description: The effect of food on oral bioavailability was determined.

[5] = Metabolic stability in hepatocytes; type: in vitro ADME
From the text: Further metabolism work in additional species will be undertaken.

Stability in plasma = type: in vitro ADME
From the text: Upon administration, Compound 1 is stable in both plasma and hepatocytes from rat, dog and human.

OAT1 = target: T1, OAT1 (Homo sapiens, UniProt Q4U2R8); experiment: Inhibition of uptake (SLC) transporters; type: in vitro ADME
T1 construct: expressed in transfected cells; host or cells: HEK293 cells

OAT3 = target: T2, OAT3 (Homo sapiens, UniProt Q8TCC7); experiment: Inhibition of uptake (SLC) transporters; type: in vitro ADME
T2 construct: expressed in transfected cells; host or cells: HEK293 cells

MATE [6] = target: T3, MATE (Homo sapiens, UniProt Q86VL8); experiment: Inhibition of uptake (SLC) transporters; type: in vitro ADME; settings: MATE2-K; HEK293 cells, probe [14C]-metformin (10 μM), pH 8.5, 0.3-600 μM tested
T3 construct: expressed in transfected cells; host or cells: HEK293 cells

MATE [7] = target: T4, MATE (Homo sapiens, UniProt Q96FL8); experiment: Inhibition of uptake (SLC) transporters; type: in vitro ADME; settings: MATE1; HEK293 cells, probe [14C]-metformin (10 μM), pH 8.5, 0.3-600 μM tested
T4 construct: expressed in transfected cells; host or cells: HEK293 cells

[8] = Cytotoxicity by lactate dehydrogenase (LDH) release; type: cell-based; settings: human, Caco-2 cells; read-out: percent cytotoxicity (LDH release)
in vivo = settings: rat, po, 100 mg/kg; for concentration at 1 h: 1 h post-dose; for concentration at 2 h: 2 h post-dose; for concentration at 0.5 h: 0.5 h post-dose
Description: In both assays, a deuterated (Compound 1-d4) internal standard was used.
The objective of this non-GLP study was to determine the pharmacokinetics of Compound 1 after a single oral (gavage) dose in rats, and to determine if Compound 1 undergoes epimerization in the rat. Compound 1 was administered to CD® IGS [Crl:CD(SD)] (Sprague Dawley) rats (5/sex/group) as a single oral gavage dose of 100 mg/kg in a vehicle of 0.5% aqueous HPMC. Rats were dosed at a dose volume of 10 mL/kg body weight.

[9] = Rat single dose metabolism/excretion study (urine and feces)
[10] = female, Sprague Dawley, Compound 1 Concentration in rat plasma, 100 mg/kg single PO, individual animals
[11] = female, Sprague-Dawley (CD IGS, Crl:CD(SD))
[12] = male, Sprague Dawley, Compound 1 Concentration in rat plasma, 100 mg/kg single PO, individual animals
[13] = male, Sprague Dawley, Compound 1 Concentration in rat plasma, 100 mg/kg single PO, Average
[14] = male, Sprague-Dawley (CD IGS, Crl:CD(SD))

T2 sequence (Q8TCC7 whole entry): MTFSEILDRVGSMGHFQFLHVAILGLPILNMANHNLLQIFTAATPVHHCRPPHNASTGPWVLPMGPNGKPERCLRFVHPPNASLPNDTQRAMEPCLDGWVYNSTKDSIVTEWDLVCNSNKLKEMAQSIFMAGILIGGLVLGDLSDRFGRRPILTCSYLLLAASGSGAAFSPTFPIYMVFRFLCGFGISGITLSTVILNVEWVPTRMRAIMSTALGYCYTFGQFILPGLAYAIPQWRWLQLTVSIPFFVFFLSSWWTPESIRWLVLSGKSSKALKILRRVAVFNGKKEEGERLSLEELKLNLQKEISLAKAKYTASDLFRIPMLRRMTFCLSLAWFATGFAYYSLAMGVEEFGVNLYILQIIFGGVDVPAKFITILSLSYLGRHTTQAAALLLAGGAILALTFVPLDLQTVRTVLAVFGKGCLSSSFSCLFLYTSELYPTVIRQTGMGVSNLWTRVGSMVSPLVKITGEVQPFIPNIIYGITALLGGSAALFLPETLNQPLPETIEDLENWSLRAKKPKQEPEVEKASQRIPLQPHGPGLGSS
T1 sequence (Q4U2R8 whole entry): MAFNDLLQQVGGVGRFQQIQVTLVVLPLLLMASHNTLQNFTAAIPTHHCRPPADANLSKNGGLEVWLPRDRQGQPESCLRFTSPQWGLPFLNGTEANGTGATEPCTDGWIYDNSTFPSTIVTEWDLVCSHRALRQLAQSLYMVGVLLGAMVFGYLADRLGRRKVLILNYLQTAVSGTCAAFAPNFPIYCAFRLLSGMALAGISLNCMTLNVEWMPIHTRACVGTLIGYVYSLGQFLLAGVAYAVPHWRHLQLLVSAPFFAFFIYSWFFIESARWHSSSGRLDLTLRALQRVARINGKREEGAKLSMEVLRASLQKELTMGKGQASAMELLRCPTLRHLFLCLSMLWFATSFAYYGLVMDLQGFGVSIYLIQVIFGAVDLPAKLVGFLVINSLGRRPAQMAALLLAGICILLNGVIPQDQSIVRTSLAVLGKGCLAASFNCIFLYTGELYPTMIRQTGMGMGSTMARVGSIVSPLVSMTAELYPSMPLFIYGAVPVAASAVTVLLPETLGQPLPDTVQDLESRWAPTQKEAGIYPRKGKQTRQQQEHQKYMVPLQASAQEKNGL
T4 sequence (Q96FL8 whole entry): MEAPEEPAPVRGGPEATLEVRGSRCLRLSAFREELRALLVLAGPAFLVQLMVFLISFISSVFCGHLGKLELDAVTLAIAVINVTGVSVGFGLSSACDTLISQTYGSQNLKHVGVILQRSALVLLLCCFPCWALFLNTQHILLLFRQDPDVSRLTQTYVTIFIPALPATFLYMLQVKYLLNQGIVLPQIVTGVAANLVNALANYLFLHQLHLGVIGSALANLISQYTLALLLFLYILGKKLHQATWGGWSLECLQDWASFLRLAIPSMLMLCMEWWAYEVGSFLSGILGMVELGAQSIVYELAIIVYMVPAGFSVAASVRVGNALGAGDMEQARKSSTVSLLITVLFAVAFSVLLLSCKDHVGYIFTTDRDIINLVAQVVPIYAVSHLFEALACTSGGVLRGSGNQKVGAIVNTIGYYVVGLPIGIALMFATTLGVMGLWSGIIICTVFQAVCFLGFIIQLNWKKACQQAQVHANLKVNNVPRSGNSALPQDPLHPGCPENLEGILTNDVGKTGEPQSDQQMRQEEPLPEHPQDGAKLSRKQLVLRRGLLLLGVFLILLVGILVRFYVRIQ
T3 sequence (Q86VL8 1-566 isoform Q86VL8-3): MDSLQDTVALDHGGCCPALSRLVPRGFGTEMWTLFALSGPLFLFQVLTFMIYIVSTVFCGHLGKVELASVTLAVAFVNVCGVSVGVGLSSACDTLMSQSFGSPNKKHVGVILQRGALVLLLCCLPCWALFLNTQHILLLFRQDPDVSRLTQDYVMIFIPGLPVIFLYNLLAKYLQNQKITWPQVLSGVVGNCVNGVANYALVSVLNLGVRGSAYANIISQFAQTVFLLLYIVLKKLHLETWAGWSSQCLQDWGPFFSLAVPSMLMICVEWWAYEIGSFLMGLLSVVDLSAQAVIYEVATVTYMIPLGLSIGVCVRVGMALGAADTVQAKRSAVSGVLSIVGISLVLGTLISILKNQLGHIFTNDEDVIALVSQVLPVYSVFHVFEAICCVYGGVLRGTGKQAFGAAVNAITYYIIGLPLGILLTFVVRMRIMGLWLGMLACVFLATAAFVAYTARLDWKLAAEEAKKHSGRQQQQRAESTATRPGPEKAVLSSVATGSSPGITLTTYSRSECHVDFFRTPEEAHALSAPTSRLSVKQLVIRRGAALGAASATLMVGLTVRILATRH

CC1(C)SC(Nc2ccccc2O)=N[C@@H]1C(=O)O [Compound 1, (R)-2-(2-hydroxyphenylamino)-5,5-dimethyl-4,5-dihydrothiazole-4-carboxylic acid mono-hydrochloride]
dose formulation stability ([1]; 0.5% HPMC, 1.0 to 200 mg/mL, room temperature): up to 13 days
dose formulation stability ([1]; 0.5% HPMC, 1.0 to 200 mg/mL, stored frozen at −20° C.): up to 85 days
dose formulation stability ([1]; formulations for in vitro assays, 0.001 to 50 mg/mL, room temperature): up to 1 day
dose formulation stability ([1]; formulations for in vitro assays, 0.001 to 50 mg/mL, stored frozen at −20° C.): up to 45 days
reversal of hyperalgesia ([2]; 10 mg/kg PO, mono-hydrochloride): statistically significant reversal of hyperalgesia; also recorded: statistically significant effect
efficacy relative to vehicle ([2]; 30 mg/kg PO): full efficacy
dose dependence of anti-hyperalgesic effect ([2]; 3 doses PO, 24, 48, 72 h post-incision, mono-hydrochloride): reversal of hyperalgesia in a dose-dependent manner
mechanical withdrawal thresholds ([2]; 24-, 48-, 72-h post-incision, Compound 1 30 mg/kg PO, celecoxib 30 mg/kg PO, morphine 10 mg/kg SC): 32 to 35 g
dose required for significance ([2]; PO, single dose 15 min prior to incision): 10 mg/kg
duration of prevention of incisional hyperalgesia ([2]; single oral dose): at least 3 days
duration of effect on development of hyperalgesia ([2]; single oral dose, FIG. 10): prevented the development of hyperalgesia for three days
effect on development of mechanical hyperalgesia ([2]; single pre-surgical dose, 24 h, 48 h, 72 h post dose, FIG. 11): completely prevented development of mechanical hyperalgesia out through day 3
hyperalgesia [3]: protected from hyperalgesia; also recorded: did not experience hyperalgesia
effect on normal sensation (uninjured animals): does not alter normal sensation
peak plasma concentrations in fasted compared to fed rats ([4]; 10 mg/kg): significantly increased
difference in pharmacokinetic properties fed vs fasted ([4]; 100 mg/kg oral): No statistically significant differences
oral absorption ([4]; fed and fasted rats, 10 and 100 mg/kg): well and rapidly absorbed
stability in hepatocytes ([5]; dog, mono-hydrochloride): stable; also recorded: showed metabolic stability
stability in hepatocytes ([5]; human, mono-hydrochloride): stable; also recorded: showed metabolic stability
stability in hepatocytes ([5]; monkey): showed metabolic stability
stability in hepatocytes ([5]; rat, mono-hydrochloride): stable; also recorded: showed metabolic stability
stability in plasma (Stability in plasma; dog): stable
stability in plasma (Stability in plasma; human): stable
stability in plasma (Stability in plasma; rat): stable
IC50 (OAT1; HEK293 cells, probe [3H]-p-aminohippurate (1 μM), 0.3-600 μM tested): > 600 µM
transporter inhibition (OAT1; OAT1): does not inhibit
IC50 (OAT3; HEK293 cells, probe [3H]-estrone-3-sulfate (0.05 μM), 0.3-600 μM tested): 174 µM
transporter inhibition (OAT3; OAT3): weakly inhibits
IC50 (MATE [6]): > 600 µM
IC50 (MATE [7]): > 600 µM
cytotoxicity [8]: < 25%
concentration at 1 h (in vivo; female, Sprague Dawley (CD IGS, Crl:CD(SD)), Compound 1 Concentration in rat plasma, Female, 100 mg/kg single PO, Average): 60100 ng/mL
concentration at 2 h (in vivo; female, Sprague Dawley (CD IGS, Crl:CD(SD)), Compound 1 Concentration in rat plasma, Female, 100 mg/kg single PO, individual animals): 58200 ng/mL
concentration at 4 h (in vivo; female, Sprague Dawley (CD IGS, Crl:CD(SD)), Compound 1 Concentration in rat plasma, Female, 100 mg/kg single PO, 4 h post-dose, Average): 22600 ng/mL
concentration at 0.5 h (in vivo; [10]): 34300 ng/mL
concentration at 1 h (in vivo; [10]): 53900 ng/mL
Cmax (in vivo; [11]): 60000 ng/mL
half-life (in vivo; [11]): 4 h
concentration at 0.5 h (in vivo; [12]): 13800 ng/mL
concentration at 1 h (in vivo; [13]): 14900 ng/mL
concentration at 2 h (in vivo; [13]): 14300 ng/mL
concentration at 2 h (in vivo; [12]): 16300 ng/mL
concentration at 8 h (in vivo; male, Sprague Dawley, Compound 1 Concentration in rat plasma, 100 mg/kg single PO, 8 h post-dose, individual animals): 1610 ng/mL
Cmax (in vivo; [14]): 15000 ng/mL
Tmax (in vivo; [14]): 1 h
half-life (in vivo; [14]): 7 h
administered compound recovered unchanged [9]: 5-15%
